Laboratory results taken from ChEMBL document CHEMBL3785047, “Biological evaluation of synthetic α,β-unsaturated carbonyl based cyclohexanone derivatives as neuroprotective novel inhibitors of acetylcholinesterase, butyrylcholinesterase and amyloid-β aggregation” (Bioorg Med Chem, 2016).

Assays:
Acetylcholinesterase = Acetylcholinesterase (Electrophorus electricus, UniProt O42275)
Description: Inhibition of electric eel AChE using acetylthiocholine iodide as substrate preincubated for 5 mins followed by substrate addition measured for 10 mins by modified Ellman's method

Cholinesterase = Cholinesterase (Equus caballus, UniProt P81908)
Description: Inhibition of horse serum BChE using butrylthiocholine iodide as substrate preincubated for 5 mins followed by substrate addition measured for 10 mins by modified Ellman's method

[1] = Cytotoxicity against rat PC12 cells assessed as reduction in cell viability at 0.01 to 100 uM after 24 hrs by MTT assay; type: cell-based; settings: pc-12, 24 h
PC-12 = test: Neuroprotective activity against amyloid beta (1 to 42)-induced cell death in rat PC12 cells assessed as cell viability at 100 uM preincubated for 24 hrs followed by amyloid beta (1 to 42) addition measured after 1 day by MTT assay relative to control; type: functional; settings: read-out: Activity
[2] = biological target: Amyloid-beta precursor protein (Homo sapiens) (UniProt P05067); test: Inhibition of amyloid beta (1-42) (unknown origin) self-induced aggregation after 2 days by thioflavin T fluorometric assay
Chain of Amyloid-beta precursor protein (Homo sapiens) (P05067 whole entry): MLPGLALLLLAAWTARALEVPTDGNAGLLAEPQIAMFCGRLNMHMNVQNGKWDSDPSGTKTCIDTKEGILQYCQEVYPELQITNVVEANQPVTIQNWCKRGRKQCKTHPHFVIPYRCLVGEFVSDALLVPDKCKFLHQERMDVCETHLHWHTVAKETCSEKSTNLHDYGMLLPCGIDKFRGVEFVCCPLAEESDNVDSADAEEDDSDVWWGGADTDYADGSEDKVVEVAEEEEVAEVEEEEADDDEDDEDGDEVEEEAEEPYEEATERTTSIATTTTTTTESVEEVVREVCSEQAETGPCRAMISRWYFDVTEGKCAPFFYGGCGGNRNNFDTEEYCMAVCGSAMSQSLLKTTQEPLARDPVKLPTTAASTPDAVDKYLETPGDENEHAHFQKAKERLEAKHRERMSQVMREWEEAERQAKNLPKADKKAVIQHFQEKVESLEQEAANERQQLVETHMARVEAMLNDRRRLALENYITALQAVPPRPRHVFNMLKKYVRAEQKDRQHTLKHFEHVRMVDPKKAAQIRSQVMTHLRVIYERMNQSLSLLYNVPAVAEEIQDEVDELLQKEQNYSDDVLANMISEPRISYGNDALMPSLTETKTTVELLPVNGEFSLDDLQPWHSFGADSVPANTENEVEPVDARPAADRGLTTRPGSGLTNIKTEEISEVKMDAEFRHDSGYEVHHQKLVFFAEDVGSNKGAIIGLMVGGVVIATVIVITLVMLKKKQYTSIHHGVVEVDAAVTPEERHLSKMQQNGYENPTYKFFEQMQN

Chain of Acetylcholinesterase (O42275 whole entry): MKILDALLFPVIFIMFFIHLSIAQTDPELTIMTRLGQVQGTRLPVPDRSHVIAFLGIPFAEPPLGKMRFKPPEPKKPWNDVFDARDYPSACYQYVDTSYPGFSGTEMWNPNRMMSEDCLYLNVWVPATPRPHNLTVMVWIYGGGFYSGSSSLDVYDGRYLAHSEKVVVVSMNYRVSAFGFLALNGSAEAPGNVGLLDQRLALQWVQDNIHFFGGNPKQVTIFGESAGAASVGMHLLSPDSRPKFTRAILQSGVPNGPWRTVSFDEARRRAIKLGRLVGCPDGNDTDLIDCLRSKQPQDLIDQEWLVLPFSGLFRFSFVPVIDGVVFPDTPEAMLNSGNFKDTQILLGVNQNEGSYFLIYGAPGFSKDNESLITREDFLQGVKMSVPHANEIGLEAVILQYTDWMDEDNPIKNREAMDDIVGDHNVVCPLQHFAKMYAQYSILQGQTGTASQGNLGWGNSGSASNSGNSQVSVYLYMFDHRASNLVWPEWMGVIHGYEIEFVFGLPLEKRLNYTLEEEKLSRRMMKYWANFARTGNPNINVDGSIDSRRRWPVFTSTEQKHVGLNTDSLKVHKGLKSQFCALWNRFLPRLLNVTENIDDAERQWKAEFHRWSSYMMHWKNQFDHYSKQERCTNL
Chain of Cholinesterase (P81908 whole entry): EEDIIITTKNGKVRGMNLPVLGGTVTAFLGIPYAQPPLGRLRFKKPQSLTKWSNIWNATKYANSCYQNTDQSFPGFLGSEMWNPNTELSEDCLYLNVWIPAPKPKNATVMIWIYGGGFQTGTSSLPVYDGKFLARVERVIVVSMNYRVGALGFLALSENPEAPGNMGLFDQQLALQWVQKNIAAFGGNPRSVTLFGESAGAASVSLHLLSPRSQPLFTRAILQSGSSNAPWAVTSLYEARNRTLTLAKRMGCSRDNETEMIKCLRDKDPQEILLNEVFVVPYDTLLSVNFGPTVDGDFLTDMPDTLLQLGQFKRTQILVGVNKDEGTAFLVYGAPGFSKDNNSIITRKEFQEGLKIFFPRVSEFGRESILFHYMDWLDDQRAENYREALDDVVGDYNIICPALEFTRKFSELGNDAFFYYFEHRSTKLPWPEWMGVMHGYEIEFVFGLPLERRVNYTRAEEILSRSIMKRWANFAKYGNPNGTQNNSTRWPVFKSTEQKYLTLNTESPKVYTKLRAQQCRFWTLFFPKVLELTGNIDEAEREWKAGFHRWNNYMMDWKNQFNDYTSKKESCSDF

Row | SMILES | IC50 (Acetylcholinesterase) | IC50 (Cholinesterase) | Activity [1] | viability at 100 µM (PC-12) | inhibition [2]
1 | COc1ccc(/C=C2\CC(C)C/C(=C\c3ccc(OC)c(OC)c3Cl)C2=O)c(Cl)c1OC (centres undefined) | 2.1 µM | 11.2 µM | Non-toxic | 58% | 
2 | COc1cccc(/C=C2\CC(C)C/C(=C\c3cccc(OC)c3Cl)C2=O)c1Cl (centres undefined) | 5.6 µM | 49.7 µM | Non-toxic | 58% | 
3 | COc1cccc(/C=C2\CN(Cc3ccccc3)C/C(=C\c3cccc(OC)c3Cl)C2=O)c1Cl | > 100 µM | > 100 µM | Non-toxic | 58% | 
4 | COc1cccc(/C=C2\CN(C)C/C(=C\c3cccc(OC)c3Cl)C2=O)c1Cl | 1.2 µM | > 100 µM | Non-toxic | ≤ 92% | 
5 | COc1cc(/C=C2\COC/C(=C\c3cc(OC)c(OC)c(OC)c3Br)C2=O)c(Br)c(OC)c1OC | 1.5 µM | > 100 µM | Non-toxic | ≤ 92% | 
6 | COc1cccc(/C=C2\CC(C(C)C)C/C(=C\c3cccc(OC)c3Cl)C2=O)c1Cl (centres undefined) | 1.3 µM | > 100 µM | Non-toxic | 58% | 
7 | COc1cc(/C=C2\CN(Cc3ccccc3)C/C(=C\c3cc(OC)c(OC)c(OC)c3Br)C2=O)c(Br)c(OC)c1OC | > 100 µM | > 100 µM | Non-toxic | 58% | 
8 | COc1cccc(/C=C2\CCC/C(=C\c3cccc(OC)c3Cl)C2=O)c1Cl | 22.4 µM | > 100 µM | Non-toxic | 58% | 
9 | COc1cccc(/C=C2\CNC/C(=C\c3cccc(OC)c3Cl)C2=O)c1Cl | 5.2 µM | > 100 µM | Non-toxic | 58% | 
10 | COc1ccc(/C=C2\COC/C(=C\c3ccc(OC)c(OC)c3Cl)C2=O)c(Cl)c1OC | 7.2 µM | > 100 µM | Non-toxic | 58% | 
11 | COc1cc(/C=C2\CC(C(C)C)C/C(=C\c3cc(OC)c(OC)c(OC)c3Br)C2=O)c(Br)c(OC)c1OC (centres undefined) | 0.51 µM | > 100 µM | Non-toxic | 58% | Dose-dependent effect
12 | COc1ccc(/C=C2\CN(C)C/C(=C\c3ccc(OC)c(OC)c3Cl)C2=O)c(Cl)c1OC | 0.63 µM | 2.9 µM | Non-toxic | ≤ 92% | Dose-dependent effect
13 | COc1ccc(/C=C2\CNC/C(=C\c3ccc(OC)c(OC)c3Cl)C2=O)c(Cl)c1OC | 3.7 µM | 16.7 µM | Non-toxic | 58% | 
14 | COc1cc(/C=C2\CN(C)C/C(=C\c3cc(OC)c(OC)c(OC)c3Br)C2=O)c(Br)c(OC)c1OC | 0.037 µM | 10.5 µM | Non-toxic | ≤ 92% | Dose-dependent effect
15 | COc1ccc(/C=C2\CC(C(C)C)C/C(=C\c3ccc(OC)c(OC)c3Cl)C2=O)c(Cl)c1OC (centres undefined) | 0.92 µM | > 100 µM | Non-toxic | 58% | Dose-dependent effect
16 | COc1cccc(/C=C2\COC/C(=C\c3cccc(OC)c3Cl)C2=O)c1Cl | 9.5 µM | > 100 µM | Non-toxic | 58% | 
17 | COc1cc(/C=C2\CNC/C(=C\c3cc(OC)c(OC)c(OC)c3Br)C2=O)c(Br)c(OC)c1OC | 1.9 µM | 68.8 µM | Non-toxic | ≤ 92% | 
18 | COc1cc(/C=C2\CCC/C(=C\c3cc(OC)c(OC)c(OC)c3Br)C2=O)c(Br)c(OC)c1OC | 12.6 µM | > 100 µM | Non-toxic | 58% | Dose-dependent effect
19 | COc1cc(/C=C2\CC(C)C/C(=C\c3cc(OC)c(OC)c(OC)c3Br)C2=O)c(Br)c(OC)c1OC (centres undefined) | 1.5 µM | 19.5 µM | Non-toxic | ≤ 92% | 
20 | COc1ccc(/C=C2\CN(Cc3ccccc3)C/C(=C\c3ccc(OC)c(OC)c3Cl)C2=O)c(Cl)c1OC | > 100 µM | > 100 µM | Non-toxic | 58% | 
21 | COc1ccc(/C=C2\CCC/C(=C\c3ccc(OC)c(OC)c3Cl)C2=O)c(Cl)c1OC | 17.5 µM | > 100 µM | Non-toxic | 58% | 
